Assay results published in patent US9346782B2, “Alkyl linked quinolinyl modulators of RORγt” (Janssen Pharmaceutica NV, priority 2013, dated 2016).
Where a name gives a salt, the structure may show the parent alone.

Experiments:
[1] = biological target: human RORγt LBD (Homo sapiens (Human), UniProt P51449); assay: RORγt Reporter Assay; type: cell-based; conditions: for inhibition at 6 µM: HEK-293T, read-out: RORγt reporter Assay, % inhibition @ 6 μM, HEK293T cells, 6 μM
Description: A reporter assay was used to test functional activity of RORγt modulatory compounds on transcriptional activation driven by the RORγt LBD. Cells used in the assay were co-transfected with two constructs. The first construct, pBIND-RORγt LBD, contained the wild type human RORγt LBD fused to the DNA binding domain of the GAL4 protein. The second construct, pGL4.31 (Promega Cat no. C935A), contained multiple GAL4 responsive DNA elements upstream of firefly luciferase. […] The mutant construct was called pBIND-RORγt-AF2.
The pBIND vector contains the GAL4 DNA Binding Domain (GAL4 DBD) and the renilla luciferase gene under control of the SV40 promoter. Renilla luciferase expression serves as a control for transfection efficiency and cell viability.
The reporter assay was performed by transiently transfecting HEK293T cells with 5 μg of pBIND-RORγt LBD or pBIND-RORγt LBD-AF2 and 5 μg pGL4.31 (Promega Cat no. C935A) using Fugene 6 (Invitrogen Cat no. E2691) at a 1:6 ratio of DNA:Fugene 6 in a T-75 flask in which cells were at least 80% confluent. Twenty four hours after bulk transfection, cells were plated into 96-well plates at 50,000 cells/well in phenol-red free DMEM containing 5% Lipid Reduced FCS and Pen/Strep. Six hours after plating, cells were treated with compounds for 24 hours. Media was removed and cells were lysed with 50 μL 1× Glo Lysis Buffer (Promega). Dual Glo Luciferase Reagent (50 μL/well) was then added and firefly luciferase luminescence was read on an Envision after a ten minute incubation. Finally, Stop and Glo reagent (50 μL/well) was added and renilla luciferase luminescence was read on an Envision after a ten minute incubation. To calculate the effect of compounds on RORγt activity, the ratio of firefly to renilla luciferase was determined and plotted against compound concentration. Agonist compounds increase RORγt-driven luciferase expression, and antagonist or inverse agonist compounds decrease luciferase expression.

[2] = test system: IL-17 production by CD4 T cells; assay: Human Th17 Assay; type: cell-based; conditions: 3 days
Description: The human Th17 assay tests the effect of RORγt modulatory compounds on IL-17 production by CD4 T cells under conditions which favor Th17 differentiation. Total CD4^+ T cells were isolated from the peripheral blood mononuclear cells (PBMC) of healthy donors using a CD4^+ T cell isolation kit II, following the manufacturer's instructions (Miltenyi Biotec). Cells were resuspended in a medium of RPMI-1640 supplemented with 10% fetal bovine serum, penicillin, streptomycin, glutamate, and β-mercaptoethanol and were added to 96-well plates at 1.5×10^5 per 100 μL per well. 50 μL of compound at titrated concentrations in DMSO were added into each well at final DMSO concentration at 0.2%. Cells were incubated for 1 hour, then 50 μL of Th17 cell differentiation medium was added to each well. The final concentrations of antibodies and cytokines (R&D Systems) in differentiation medium were: 3×10^6/mL anti-CD3/CD28 beads (prepared using human T cell activation/expansion kit, Miltenyi Biotec), 10 μg/mL anti-IL4, 10 μg/mL anti-IFNγ, 10 ng/mL IL1β, 10 ng/mL IL23, 50 ng/mL IL6, 3 ng/mL TGFβ and 20 U/mL IL2. Cells were cultured at 37° C. and 5% CO2 for 3 days. Supernatants were collected and the accumulated IL-17 in culture was measured by using MULTI-SPOT® Cytokine Plate following manufacture's instruction (Meso Scale Discovery). The plate was read using Sector Imager 6000, and IL-17 concentration was extrapolated from the standard curve. The IC50s were determined by GraphPad.

human RORγt LBD, sequence (P51449 258-518): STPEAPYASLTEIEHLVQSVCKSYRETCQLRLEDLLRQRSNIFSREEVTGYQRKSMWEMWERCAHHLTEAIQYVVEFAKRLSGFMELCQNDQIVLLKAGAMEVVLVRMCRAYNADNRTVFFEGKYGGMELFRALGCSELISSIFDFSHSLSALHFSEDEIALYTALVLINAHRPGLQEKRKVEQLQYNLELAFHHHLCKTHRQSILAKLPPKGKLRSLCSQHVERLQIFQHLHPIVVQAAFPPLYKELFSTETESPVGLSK

Row | Compound | IC50 ([1]; HEK293T cells) | inhibition at 6 µM [1] | also measured
1 | CCCCC(O)(c1ccc2nc(Cl)c(-c3ccccc3)c(Cl)c2c1)c1cncn1C (stereo not shown) [Example 4, 1-(2,4-Dichloro-3-phenylquinolin-6-yl)-1-(1-methyl-1H-imidazol-5-yl)pentan-1-ol.TFA] | 1500 nM | 114% | 
2 | COc1nc2ccc(C(C)(O)c3cncn3C)cc2c(Cl)c1Cc1ccc(C(F)(F)F)cc1 (single isomer, unassigned) [Example 9b, 1-(4-Chloro-2-methoxy-3-(4-(trifluoromethyl)benzyl)quinolin-6-yl)-1-(1-methyl-1H-imidazol-5-yl)ethanol] | 1300 nM | 89% | 
3 | C#CC(O)(c1ccc2nc(OC)c(Cc3ccc(C(F)(F)F)cc3)c(Cl)c2c1)c1cnc(C)n1C (single isomer, unassigned) [Example 14c, 1-(4-Chloro-2-methoxy-3-(4-(trifluoromethyl)benzyl)quinolin-6-yl)-1-(1,2-dimethyl-1H-imidazol-5-yl)prop-2-yn-1-ol] | 310 nM |  | RORγt reporter Assay, % inhibition @ 6 μM ([1]; HEK293T cells, 6 μM): 94%; IC50 [2]: 290 nM
4 | C#CC(O)(c1ccc2nc(OC)c(Cc3ccc(C(F)(F)F)cc3)c(Cl)c2c1)c1cnc(C)n1C (stereo not shown) [Example 14a, 1-(4-Chloro-2-methoxy-3-(4-(trifluoromethyl)benzyl)quinolin-6-yl)-1-(1,2-dimethyl-1H-imidazol-5-yl)prop-2-yn-1-ol] | 210 nM | 81% | 
5 | COc1nc2ccc(C(C)(O)c3oc(C)nc3C)cc2c(Cl)c1Cc1ccc(C(F)(F)F)cc1 (single isomer, unassigned) [Example 10c, 1-(4-Chloro-2-methoxy-3-(4-(trifluoromethyl)benzyl)quinolin-6-yl)-1-(2,4-dimethyloxazol-5-yl)ethanol] | 330 nM | 95% | IC50 ([2]; Homo sapiens, CD4+ T, 72 h): 550 nM
6 | CCC(O)(c1ccc2nc(Cl)c(-c3ccccc3)c(Cl)c2c1)c1cc(C)no1 (stereo not shown) [Example 2, 1-(2,4-Dichloro-3-phenylquinolin-6-yl)-1-(3-methylisoxazol-5-yl)propan-1-ol.TFA] |  |  | IC50 ([2]; Homo sapiens, 72 h): ~6000 nM
7 | COc1nc2ccc(C(C)(O)c3cnc(C)n3C)cc2c(Cl)c1Cc1ccc(C(F)(F)F)cc1 (single isomer, unassigned) [Example 12b, 1-(4-Chloro-2-methoxy-3-(4-(trifluoromethyl)benzyl)quinolin-6-yl)-1-(1,2-dimethyl-1H-imidazol-5-yl)ethanol] | 500 nM | 102% | IC50 [2]: 2100 nM
8 | COc1nc2ccc(C(C)(O)c3ccc(C)nc3C)cc2c(Cl)c1Cc1ccc(C(F)(F)F)cc1 (single isomer, unassigned) [Example 13b, 1-(4-Chloro-2-methoxy-3-(4-(trifluoromethyl)benzyl)quinolin-6-yl)-1-(2,6-dimethylpyridin-3-yl)ethanol] | 200 nM | 101% | IC50 [2]: 170 nM
9 | COc1nc2ccc(C(C)(O)c3oc(C)nc3C)cc2c(Cl)c1Cc1ccc(C(F)(F)F)cc1 (single isomer, unassigned) [Example 10a, 1-(4-Chloro-2-methoxy-3-(4-(trifluoromethyl)benzyl)quinolin-6-yl)-1-(2,4-dimethyloxazol-5-yl)ethanol] | 250 nM | 101% | 
10 | COc1nc2ccc(C(C)(O)c3cnnn3C)cc2c(Cl)c1Cc1ccc(C(F)(F)F)cc1 (stereo not shown) [Example 11a, 1-(4-Chloro-2-methoxy-3-(4-(trifluoromethyl)benzyl)quinolin-6-yl)-1-(1-methyl-1H-1,2,3-triazol-5-yl)ethanol] | 110 nM | 102% | 
11 | C#CC(O)(c1ccc2nc(OC)c(Cc3ccc(C(F)(F)F)cc3)c(Cl)c2c1)C1CN(C(C)=O)C1 (stereo not shown) [Example 7a, 1-(3-(1-(4-Chloro-2-methoxy-3-(4-(trifluoromethyl)benzyl)quinolin-6-yl)-1-hydroxyprop-2-yn-1-yl)azetidin-1-yl)ethanone] | 230 nM | 95% | 
12 | CC(C)C(O)(c1ccc2nc(Cl)c(-c3ccccc3)c(Cl)c2c1)c1cncn1C (stereo not shown) [Example 5, 1-(2,4-Dichloro-3-phenylquinolin-6-yl)-2-methyl-1-(1-methyl-1H-imidazol-5-yl)propan-1-ol] | 1300 nM | 118% | 
13 | CCC(O)(c1ccc2nc(OC)c(Cc3ccc(S(C)(=O)=O)cc3)c(Cl)c2c1)c1cncn1C (stereo not shown) [Example 6, 1-(4-Chloro-2-methoxy-3-(4-(methylsulfonyl)benzyl)quinolin-6-yl)-1-(1-methyl-1H-imidazol-5-yl)propan-1-ol] | 1700 nM | 76% | 
14 | Cn1cncc1C(O)(c1ccc2nc(Cl)c(-c3ccccc3)c(Cl)c2c1)C1CC1 (stereo not shown) [Example 3, Cyclopropyl(2,4-dichloro-3-phenylquinolin-6-yl)(1-methyl-1H-imidazol-5-yl)methanol] | > 6000 nM | 56% | 
15 | CCCCC(O)(c1ccc2nc(Cl)c(-c3ccccc3)c(Cl)c2c1)c1cc(C)no1 (stereo not shown) [Example 1, 1-(2,4-Dichloro-3-phenylquinolin-6-yl)-1-(3-methylisoxazol-5-yl)pentan-1-ol.TFA] |  |  | IC50 ([2]; Homo sapiens, 72 h): ~3000 nM
16 | C#CC(O)(c1ccc2nc(OC)c(Cc3ccc(C(F)(F)F)cc3)c(Cl)c2c1)C1CN(C(C)=O)C1 (single isomer, unassigned) [Example 7b, 1-(3-(1-(4-chloro-2-methoxy-3-(4-(trifluoromethyl)benzyl)quinolin-6-yl)-1-hydroxyprop-2-yn-1-yl)azetidin-1-yl)ethanone] | 360 nM | 97% | 
17 | CCC(O)(c1ccc2nc(OC)c(Cc3ccc(C(F)(F)F)cc3)c(Cl)c2c1)C1CN(C(=O)OC(C)(C)C)C1 (stereo not shown) [Example 17, tert-Butyl-3-(1-(4-chloro-2-methoxy-3-(4-(trifluoromethyl)benzyl)quinolin-6-yl)-1-hydroxypropyl)azetidine-1-carboxylate] | 500 nM | 98% | 
18 | COc1nc2ccc(C(C)(O)c3ccc(C)nc3C)cc2c(Cl)c1Cc1ccc(C(F)(F)F)cc1 (stereo not shown) [Example 13a, 1-(4-Chloro-2-methoxy-3-(4-(trifluoromethyl)benzyl)quinolin-6-yl)-1-(2,6-dimethylpyridin-3-yl)ethanol] | 52 nM | 103% | 
19 | COc1nc2ccc(C(C)(O)c3cnc(C)n3C)cc2c(Cl)c1Cc1ccc(C(F)(F)F)cc1 (stereo not shown) [Example 12a, 1-(4-Chloro-2-methoxy-3-(4-(trifluoromethyl)benzyl)quinolin-6-yl)-1-(1,2-dimethyl-1H-imidazol-5-yl)ethanol] | 370 nM | 99% | 
20 | C#CC(O)(c1ccc2nc(OC)c(Cc3ccc(C(F)(F)F)cc3)c(Cl)c2c1)C1CN(C(=O)OC(C)(C)C)C1 (stereo not shown) [Example 8, tert-Butyl-3-(1-(4-chloro-2-methoxy-3-(4-(trifluoromethyl)benzyl)quinolin-6-yl)-1-hydroxyprop-2-yn-1-yl)azetidine-1-carboxylate] | 4000 nM | 71% | 
21 | COc1nc2ccc(C(C)(O)c3cncn3C)cc2c(Cl)c1Cc1ccc(C(F)(F)F)cc1 (stereo not shown) [Example 9a, 1-(4-Chloro-2-methoxy-3-(4-(trifluoromethyl)benzyl)quinolin-6-yl)-1-(1-methyl-1H-imidazol-5-yl)ethanol] | 280 nM | 98% | 
22 | Cc1nc(C)c(C(O)(c2ccc3nc(Cl)c(-c4ccccc4)c(Cl)c3c2)C(C)C)s1 (stereo not shown) [Example 15, 1-(2,4-Dichloro-3-phenylquinolin-6-yl)-1-(2,4-dimethylthiazol-5-yl)-2-methylpropan-1-ol] | ~500 nM | 99% | 
